Tests used:
[1] = test system: dengue virus type 2; test: Antiviral activity against DENV-2 infected in human Huh-7 cells assessed as reduction in virus-induced cytopathic effect measured after 15 to 30 mins by visual analysis; type: functional, organism-based
[2] = test system: Huh-7; test: Cytotoxicity against human Huh-7 cells infected with DENV-2 assessed as reduction in cell viability by visual analysis; type: functional
[3] = test system: Huh-7; test: Cytotoxicity against human Huh-7 cells infected with DENV-2 assessed as reduction in cell viability by neutral red dye based assay; type: functional
[4] = Selectivity index, ratio of CC50 for cytotoxicity against human Huh-7 cells infected with DENV-2 assessed as reduction in cell viability by visual analysis to EC50 for antiviral activity against DENV-2 infected in human Huh-7 cells assessed as reduction in virus-induced cytopathic effect by visual analysis; type: toxicity, cell-based; conditions: read-out: Ratio CC50/EC50
[5] = Selectivity index, ratio of CC50 for cytotoxicity against human Huh-7 cells infected with DENV-2 assessed as reduction in cell viability by neutral red analysis to EC50 for antiviral activity against DENV-2 infected in human Huh-7 cells assessed as reduction in virus-induced cytopathic effect by neutral red analysis; type: toxicity, cell-based; conditions: read-out: Ratio CC50/EC50
[6] = test system: Yellow fever virus; test: Antiviral activity against Yellow fever virus infected in human Huh-7 cells assessed as reduction in virus-induced cytopathic effect measured after 15 to 30 mins by visual analysis; type: functional, organism-based; conditions: Yellow fever virus, Huh-7; read-out: EC50
[7] = test system: Yellow fever virus; test: Antiviral activity against Yellow fever virus infected in human Huh-7 cells assessed as reduction in virus-induced cytopathic effect measured after 15 to 30 mins by neutral red based analysis; type: functional, organism-based
[8] = test system: Huh-7; test: Cytotoxicity against human Huh-7 cells infected with Yellow fever virus assessed as reduction in cell viability by neutral red dye based assay; type: functional
[9] = test system: Huh-7; test: Cytotoxicity against human Huh-7 cells infected with Yellow fever virus assessed as reduction in cell viability by visual assay; type: functional
[10] = Selectivity index, ratio of CC50 for cytotoxicity against human Huh-7 cells infected with Yellow fever virus assessed as reduction in cell viability by visual analysis to EC50 for antiviral activity against Yellow fever virus infected in human Huh-7 cells assessed as reduction in virus-induced cytopathic effect by visual analysis; type: toxicity, cell-based; conditions: read-out: Ratio CC50/EC50
[11] = Selectivity index, ratio of CC50 for cytotoxicity against human Huh-7 cells infected with Yellow fever virus assessed as reduction in cell viability by neutral red dye based assay to EC50 for antiviral activity against Yellow fever virus infected in human Huh-7 cells assessed as reduction in virus-induced cytopathic effect by neutral red based analysis; type: toxicity; conditions: read-out: Ratio CC50/EC50
[12] = test system: Zika virus; test: Antiviral activity against Zika virus infected in African green monkey Vero 76 cells assessed as reduction in virus-induced cytopathic effect measured after 15 to 30 mins by visual analysis; type: functional, organism-based
[13] = test system: Zika virus; test: Antiviral activity against Zika virus infected in African green monkey Vero 76 cells assessed as reduction in virus-induced cytopathic effect measured after 15 to 30 mins by neutral red based spectrophotometric analysis; type: functional, organism-based
[14] = Cytotoxicity against African green monkey Vero 76 cells infected with Zika virus assessed as reduction in cell viability by visual analysis; type: toxicity, cell-based; conditions: chlorocebus sabaeus
[15] = Cytotoxicity against African green monkey Vero 76 cells infected with Zika virus assessed as reduction in cell viability by neutral red dye based assay; type: toxicity; conditions: chlorocebus sabaeus
[16] = Selectivity index, ratio of CC50 for cytotoxicity against African green monkey Vero 76 infected with Zika virus assessed as reduction in cell viability by visual analysis to EC50 for antiviral activity against Zika virus infected in African green monkey Vero 76 cells assessed as reduction in virus-induced cytopathic effect by visual analysis; type: toxicity, cell-based; conditions: Vero 76 cells infected with Zika virus, read-out: Ratio CC50/EC50
[17] = Selectivity index, ratio of CC50 for cytotoxicity against African green monkey Vero 76 cells infected with Zika virus assessed as reduction in cell viability by neutral red dye based analysis to EC50 for antiviral activity against Zika virus infected in African green monkey Vero 76 cells assessed as reduction in virus-induced cytopathic effect by neutral red based spectrophotometric analysis; type: toxicity; conditions: read-out: Ratio CC50/EC50
[18] = test system: Influenza A virus; test: Antiviral activity against Influenza A virus H1N1 infected in dog MDCK cells assessed as reduction in virus-induced cytopathic effect measured after 15 to 30 mins by visual analysis; type: functional, organism-based
[19] = test system: Influenza A virus; test: Antiviral activity against Influenza A virus H1N1 infected in dog MDCK cells assessed as reduction in virus-induced cytopathic effect measured after 15 to 30 mins by neutral red based analysis; type: functional, organism-based
[20] = Cytotoxicity against dog MDCK cells infected with Influenza A virus H1N1 assessed as reduction in cell viability by visual analysis; type: toxicity, cell-based, Canis lupus familiaris
[21] = Cytotoxicity against dog MDCK cells infected with Influenza A virus H1N1 assessed as reduction in cell viability by neutral red dye based assay; type: toxicity, Canis lupus familiaris
[22] = Selectivity index, ratio of CC50 for cytotoxicity against dog MDCK cells infected with Influenza A virus H1N1 assessed as reduction in cell viability by visual analysis to EC50 for antiviral activity against Influenza A virus H1N1 infected in dog MDCK cells assessed as reduction in virus-induced cytopathic effect by visual analysis; type: toxicity, cell-based; conditions: read-out: Ratio CC50/EC50
[23] = Selectivity index, ratio of CC50 for cytotoxicity against dog MDCK cells infected with Influenza A virus H1N1 assessed as reduction in cell viability by neutral red dye based analysis to EC50 for antiviral activity against Influenza A virus H1N1 infected in dog MDCK cells assessed as reduction in virus-induced cytopathic effect by neutral red dye based analysis; type: toxicity; conditions: read-out: Ratio CC50/EC50
[24] = test system: Middle East respiratory syndrome-related coronavirus; test: Antiviral activity against MERS-CoV infected in African green monkey Vero 76 cells assessed as reduction in virus-induced cytopathic effect measured after 15 to 30 mins by visual analysis; type: functional, organism-based
[25] = test system: Middle East respiratory syndrome-related coronavirus; test: Antiviral activity against MERS-CoV infected in African green monkey Vero 76 cells assessed as reduction in virus-induced cytopathic effect measured after 15 to 30 mins by neutral red dye based analysis; type: functional, organism-based
[26] = Cytotoxicity against African green monkey Vero 76 cells infected with MERS-CoV assessed as reduction in cell viability by visual analysis; type: toxicity, cell-based; conditions: chlorocebus sabaeus
[27] = Cytotoxicity against African green monkey Vero 76 cells infected with MERS-CoV assessed as reduction in cell viability by neutral red dye based analysis; type: toxicity; conditions: chlorocebus sabaeus
[28] = test system: Rift Valley fever virus; test: Antiviral activity against Rift valley fever virus infected in African green monkey Vero 76 cells assessed as reduction in virus-induced cytopathic effect measured after 15 to 30 mins by visual analysis; type: functional, organism-based
[29] = Cytotoxicity against African green monkey Vero 76 cells infected with Rift valley fever virus assessed as reduction in cell viability by visual analysis; type: toxicity, cell-based; conditions: chlorocebus sabaeus
[30] = test system: Rift Valley fever virus; test: Antiviral activity against Rift valley fever virus infected in African green monkey Vero 76 cells assessed as reduction in virus-induced cytopathic effect measured after 15 to 30 mins by neutral red dye based analysis; type: functional, organism-based
[31] = Cytotoxicity against African green monkey Vero 76 cells infected with Rift valley fever virus assessed as reduction in cell viability by neutral red dye based analysis; type: toxicity; conditions: chlorocebus sabaeus
[32] = Selectivity index, ratio of CC50 for cytotoxicity against African green monkey Vero 76 cells infected with Rift valley fever virus assessed as reduction in cell viability by visual analysis to EC50 for antiviral activity against Rift valley fever virus infected in African green monkey Vero 76 cells assessed as reduction in virus-induced cytopathic effect by visual analysis; type: toxicity, cell-based; conditions: read-out: Ratio CC50/EC50
[33] = Selectivity index, ratio of CC50 for cytotoxicity against African green monkey Vero 76 cells infected with Rift valley fever virus assessed as reduction in cell viability by neutral red dye based analysis to EC50 for antiviral activity against Rift valley fever virus infected in African green monkey Vero 76 cells assessed as reduction in virus-induced cytopathic effect by neutral red dye based analysis; type: toxicity; conditions: read-out: Ratio CC50/EC50

Row | SMILES | EC50 [1] [µM] | CC50 [2] [µM] | CC50 [3] [µM] | selectivity ratio [4] | selectivity ratio [5] | EC50 [6] [µM] | EC50 [7] [µM] | CC50 [8] [µM] | CC50 [9] [µM] | selectivity ratio [10] | selectivity ratio [11] | EC50 [12] [µM] | EC50 [13] [µM] | CC50 [14] [µM] | CC50 [15] [µM] | selectivity ratio [16] | selectivity ratio [17] | EC50 [18] [µM] | EC50 [19] [µM] | CC50 [20] [µM] | further results
1 | Nc1ncnc2c([C@@H]3N[C@H](CO)[C@@H](O)[C@H]3O)c[nH]c12 [GALIDESIVIR] | 13 | > 100 | > 100 | > 7.7 | > 100 | > 100 | 18 | > 100 | > 100 | > 3.6 | > 5.6 | 12 | 33 | > 100 | > 100 | > 8.3 | > 3 | 3.6 | 3.3 | > 100 | CC50 [21]: > 100 µM; selectivity ratio [22]: > 28; selectivity ratio [23]: > 30; EC50 [24]: > 100 µM; EC50 [25]: > 100 µM; CC50 [26]: > 100 µM; CC50 [27]: > 100 µM; EC50 [28]: 23 µM; CC50 [29]: > 100 µM; EC50 [30]: 27 µM; CC50 [31]: > 100 µM; selectivity ratio [32]: > 4.3; selectivity ratio [33]: > 3.7
2 | Nc1ncnn2c([C@@H]3N[C@H](CO)[C@@H](O)[C@H]3O)ccc12 | 0.32 | > 100 | 2.9 | 10 | 2.9 | 0.37 | 0.5 | 3.2 | 3.2 | 8.6 | 8.6 | 0.32 | 0.38 | 6.1 | 4.4 | 19 | 12 | 0.42 | 0.28 | 24 | CC50 [21]: 3 µM; selectivity ratio [22]: 57; selectivity ratio [23]: 23; EC50 [24]: 0.32 µM; EC50 [25]: 32 µM; CC50 [26]: 10 µM; CC50 [27]: 4.4 µM; EC50 [28]: < 0.1 µM; CC50 [29]: 10 µM; EC50 [30]: < 0.1 µM; CC50 [31]: 8.9 µM; selectivity ratio [32]: > 100; selectivity ratio [33]: > 89
